pIC50: −log10 of the molar value.
What was measured:
[1] = test system: mice fed Gubra amylin NASH (GAN) diet; assay: Biological effects in GAN diet NASH mice; assay type: in vivo; details: after two weeks, 10 mg/kg group; for Gal-3 Total: liver Galectin-3, histological quantitative assessment; for TG Total: liver triglycerides, GAN diet NASH mice; for α-SMA Total: liver α-smooth muscle actin, histological quantitative assessment
Description: NASH was induced in mice by feeding mice a Gubra amylin NASH (GAN) diet as described in Boland et al. World J Gastroenterol. 2019, 25(33): 4904-4920. One week prior to administration of a first dose of compounds, the mice were weighed and randomized, and their food intake was measured. Mice were randomly assigned to dosing groups, with twelve mice per group. […] Compound dose titration (nmol/kg): 0.6 (day 0), 1.2 (day 1), 2.4 (day 2), 4.8 (day 3), 4.8 (day 4), 12 (day 5), 30.0 (from day 6).
After two weeks, animals were sacrificed. Plasma enzymes (P-ALT (alanine aminotransferase) and P-AST (aspartate aminotransferase)), total plasma triglycerides, and total plasma cholesterol were measured, and terminal necropsy of each liver was carried out, determining relative liver weight as a percentage of body weight, assaying total liver biochemistry including total liver triglycerides, plasma insulin and total liver cholesterol, as well as histological evaluation of Galectin-3, and alpha-smooth muscle actin.

GIP receptor [2] = biological target: T1, GIP receptor (Homo sapiens, UniProt P48546); assay: HSA modulated binding assay, GIP receptor; details: for % Binding avg at CMax: GIP receptor; for pIC50: IC 50, GIP receptor
T1 sequence (P48546 22-466): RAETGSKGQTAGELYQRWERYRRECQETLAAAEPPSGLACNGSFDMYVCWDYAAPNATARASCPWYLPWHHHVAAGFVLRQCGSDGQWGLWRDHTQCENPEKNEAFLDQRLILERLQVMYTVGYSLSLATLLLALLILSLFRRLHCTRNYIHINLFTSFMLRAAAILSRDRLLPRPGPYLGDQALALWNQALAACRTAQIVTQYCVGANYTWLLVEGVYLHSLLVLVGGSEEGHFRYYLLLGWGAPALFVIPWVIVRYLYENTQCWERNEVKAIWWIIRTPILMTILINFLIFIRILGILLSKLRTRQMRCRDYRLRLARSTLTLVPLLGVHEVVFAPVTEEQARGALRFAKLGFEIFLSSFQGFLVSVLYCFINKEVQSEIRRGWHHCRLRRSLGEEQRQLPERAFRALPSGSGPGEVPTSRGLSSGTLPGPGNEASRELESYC

GIP receptor [3] = biological target: T1, GIP receptor; assay: TagLite binding assay, GIP receptor; details: for % Binding avg at CMax: GIP receptor
GLP-1 receptor [4] = biological target: T2, GLP-1 receptor (Homo sapiens, UniProt P43220); assay: TagLite binding assay, GLP-1 receptor; details: for % Binding avg at CMax: GLP-1 receptor
T2 sequence (P43220 24-463): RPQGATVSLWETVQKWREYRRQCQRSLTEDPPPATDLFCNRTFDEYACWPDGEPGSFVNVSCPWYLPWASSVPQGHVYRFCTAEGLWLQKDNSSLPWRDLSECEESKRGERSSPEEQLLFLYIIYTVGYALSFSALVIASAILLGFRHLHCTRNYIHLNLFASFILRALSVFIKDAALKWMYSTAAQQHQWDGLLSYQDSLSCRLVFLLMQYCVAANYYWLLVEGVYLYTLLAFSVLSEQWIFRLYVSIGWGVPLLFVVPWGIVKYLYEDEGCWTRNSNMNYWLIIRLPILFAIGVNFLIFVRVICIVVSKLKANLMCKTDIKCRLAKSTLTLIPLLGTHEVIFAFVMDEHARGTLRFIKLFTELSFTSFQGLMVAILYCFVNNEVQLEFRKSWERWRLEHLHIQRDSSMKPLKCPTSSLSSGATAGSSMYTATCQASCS

GLP-1 receptor [5] = biological target: T2, GLP-1 receptor; assay: HSA modulated binding assay, GLP-1 receptor; details: for pIC50: IC 50, GLP-1 receptor
[6] = Pharmacokinetics in monkeys, SC dosing; assay type: in vivo, cynomolgus monkeys; details: for half-life: cynomolgus monkey, in vivo, male cynomolgus monkeys, SC single dose 0.2 mg/kg, 0.1% bovine serum albumin in phosphate buffered saline, mean; for persistence in the blood stream as compared to tirzepatide: cynomolgus monkeys, SC 0.2 mg/kg
Description: (§1) Subcutaneous (SC) dosing of the compounds in a vehicle of 0.1% bovine serum albumin in phosphate buffered saline solution was performed with male cynomolgus monkeys. […] Samples were obtained at 1, 4, 8, 12, 24, 48, 72, 96, 120, 168, 192, 240 and 336 hours after the single dose was administered.

[7] = Pharmacokinetics studies of formulations, SC dosing; assay type: in vivo, cynomolgus monkeys; details: for half-life: cynomolgus monkey, in vivo, SC 0.2 mg/kg, mean
Description: as §1
Formulation 1 included the compound in a vehicle of 0.1% bovine serum albumin in phosphate buffered saline solution.

Molecule | Gal-3 Total [1] [mg] | TG Total [1] [mg per/ liver] | α-SMA Total [1] [mg] | % Binding avg at CMax (GIP receptor [2]; 0% HSA) [%] | % Binding avg at CMax (GIP receptor [2]; 2% HSA) [%] | % Binding avg at CMax (GIP receptor [3]) [%] | % Binding avg at CMax (GLP-1 receptor [4]) [%] | % Binding avg at CMax (GLP-1 receptor [5]; GLP-1 receptor, 0% HSA) [%] | % Binding avg at CMax (GLP-1 receptor [5]; GLP-1 receptor, 2% HSA) [%] | half-life [6] [h] | persistence in the blood stream as compared to tirzepatide [6] | other results
CC[C@H](C)[C@H](NC(=O)[C@H](CC(C)C)NC(=O)[C@H](Cc1c[nH]c2ccccc12)NC(=O)[C@H](CCC(N)=O)NC(=O)[C@@H](NC(=O)[C@H](Cc1ccccc1)NC(=O)[C@H](C)NC(=O)[C@H](CCCCNC(=O)COCCOCCNC(=O)COCCOCCNC(=O)CC[C@H](NC(=O)CCCCCCCCCCCCCCCCCCC(=O)O)P(=O)(O)O)NC(=O)[C@H](CCC(N)=O)NC(=O)[C@H](C)NC(=O)[C@@H](NC(=O)[C@H](CCCCN)NC(=O)[C@H](CC(=O)O)NC(=O)[C@H](CC(C)C)NC(=O)C(C)(C)NC(=O)[C@@H](NC(=O)[C@H](CO)NC(=O)[C@H](Cc1ccc(O)cc1)NC(=O)[C@H](CC(=O)O)NC(=O)[C@H](CO)NC(=O)[C@@H](NC(=O)[C@H](Cc1ccccc1)NC(=O)[C@@H](NC(=O)CNC(=O)[C@H](CCC(=O)O)NC(=O)C(C)(C)NC(=O)[C@@H](N)Cc1ccc(O)cc1)[C@@H](C)O)[C@@H](C)O)[C@@H](C)CC)[C@@H](C)CC)C(C)C)C(=O)N[C@@H](C)C(=O)NCC(=O)NCC(=O)N1CCC[C@H]1C(=O)N[C@@H](CO)C(=O)N[C@@H](CO)C(=O)NCC(=O)N[C@@H](C)C(=O)N1CCC[C@H]1C(=O)N1CCC[C@H]1C(=O)N1CCC[C@H]1C(=O)N[C@@H](CO)C(N)=O [Compound 8] | 117 ± 12 | 75 ± 7 | 83 ± 8 |  |  |  |  |  |  |  |  | 
tirzepatide [reference compound] | 138 ± 17 | 80 ± 11 | 108 ± 22 | −3.05 | 10.07 | −1.21 | 0.20 | −0.14 | 33.01 |  |  | Ratio of HSA/No HSA (GLP-1 receptor [5]; GLP-1 receptor, binding with 2% HSA to binding with 0% HSA): 12.8
CC[C@H](C)[C@H](NC(=O)[C@H](CC(C)C)NC(=O)[C@H](Cc1c[nH]c2ccccc12)NC(=O)[C@H](CCC(N)=O)NC(=O)[C@@H](NC(=O)[C@H](Cc1ccccc1)NC(=O)[C@H](C)NC(=O)[C@H](CCCCNC(=O)COCCOCCNC(=O)COCCOCCNC(=O)CC[C@H](NC(=O)CCCCCCCCCCCCCCCCCCP(=O)(O)O)P(=O)(O)O)NC(=O)[C@H](CCC(N)=O)NC(=O)[C@H](C)NC(=O)[C@@H](NC(=O)[C@H](CCCCN)NC(=O)[C@H](CC(=O)O)NC(=O)[C@H](CC(C)C)NC(=O)C(C)(C)NC(=O)[C@@H](NC(=O)[C@H](CO)NC(=O)[C@H](Cc1ccc(O)cc1)NC(=O)[C@H](CC(=O)O)NC(=O)[C@H](CO)NC(=O)[C@@H](NC(=O)[C@H](Cc1ccccc1)NC(=O)[C@@H](NC(=O)CNC(=O)[C@H](CCC(=O)O)NC(=O)C(C)(C)NC(=O)[C@@H](N)Cc1ccc(O)cc1)[C@@H](C)O)[C@@H](C)O)[C@@H](C)CC)[C@@H](C)CC)C(C)C)C(=O)N[C@@H](C)C(=O)NCC(=O)NCC(=O)N1CCC[C@H]1C(=O)N[C@@H](CO)C(=O)N[C@@H](CO)C(=O)NCC(=O)N[C@@H](C)C(=O)N1CCC[C@H]1C(=O)N1CCC[C@H]1C(=O)N1CCC[C@H]1C(=O)N[C@@H](CO)C(N)=O [Compound 12] |  |  |  | −3.33 | 5.52 | −1.47 | 0.09 | 0.22 | 12.04 | 104 | significantly greater persistence | pIC50 (GIP receptor [2]; 0% HSA): 6.59; pIC50 (GIP receptor [2]; 2% HSA): 6.36; pIC50 (GIP receptor [3]): 6.86; pIC50 (GLP-1 receptor [4]): 6.89; pIC50 (GLP-1 receptor [5]; 0% HSA): 6.84; pIC50 (GLP-1 receptor [5]; 2% HSA): 6.12
CC[C@H](C)[C@H](NC(=O)[C@H](CC(C)C)NC(=O)[C@H](Cc1c[nH]c2ccccc12)NC(=O)[C@H](CCC(N)=O)NC(=O)[C@@H](NC(=O)[C@H](Cc1ccccc1)NC(=O)[C@H](C)NC(=O)[C@H](CCCCNC(=O)COCCOCCNC(=O)COCCOCCNC(=O)CC[C@H](NC(=O)CCCCCCCCCCCCCCCCCCP(=O)(O)O)C(=O)O)NC(=O)[C@H](CCC(N)=O)NC(=O)[C@H](C)NC(=O)[C@@H](NC(=O)[C@H](CCCCN)NC(=O)[C@H](CC(=O)O)NC(=O)[C@H](CC(C)C)NC(=O)C(C)(C)NC(=O)[C@@H](NC(=O)[C@H](CO)NC(=O)[C@H](Cc1ccc(O)cc1)NC(=O)[C@H](CC(=O)O)NC(=O)[C@H](CO)NC(=O)[C@@H](NC(=O)[C@H](Cc1ccccc1)NC(=O)[C@@H](NC(=O)CNC(=O)[C@H](CCC(=O)O)NC(=O)C(C)(C)NC(=O)[C@@H](N)Cc1ccc(O)cc1)[C@@H](C)O)[C@@H](C)O)[C@@H](C)CC)[C@@H](C)CC)C(C)C)C(=O)N[C@@H](C)C(=O)NCC(=O)NCC(=O)N1CCC[C@H]1C(=O)N[C@@H](CO)C(=O)N[C@@H](CO)C(=O)NCC(=O)N[C@@H](C)C(=O)N1CCC[C@H]1C(=O)N1CCC[C@H]1C(=O)N1CCC[C@H]1C(=O)N[C@@H](CO)C(N)=O [Compound 4] | 137 ± 15 | 70 ± 5 | 102 ± 10 |  |  |  |  |  |  | 118 | significantly greater persistence | persistence in the blood stream as compared to tirzepatide in the identical formulation ([7]; Formulation 1 and Formulation 2): significantly greater persistence; half-life ([7]; Formulation 1 (0.1% bovine serum albumin in phosphate buffered saline)): 106 h; half-life ([7]; Formulation 2 (40% propylene glycol and 60% 10 mM pH 6 citrate buffer)): 120 h

Source: US11744873B2, “Compositions and methods for the treatment of metabolic and liver disorders” (Viking Therapeutics, Inc., priority 2021, dated 2023)
